Assay results reported in ChEMBL document CHEMBL1201862, “PubChem BioAssay data set” (2004).
Values belong to the molecule of their own block, whether it stands above or below them. Active and inactive are the calls of the source.

Legend:
[1] = target: Potassium voltage-gated channel subfamily KQT member 2 (Rattus norvegicus, UniProt O88943); test: potentiation of rat KCNQ2 current – cell-based, retigabine-insensitive compounds, dose response (AID 2654); type: functional
Hexokinase HKDC1 = target: T1, Hexokinase HKDC1 (Homo sapiens, UniProt Q2TB90); test: inhibition of HKDC1 glucose phosphorylation – biochemical, W721R variant, dose response (AID 504729); type: functional
T1 sequence (Q2TB90 whole entry): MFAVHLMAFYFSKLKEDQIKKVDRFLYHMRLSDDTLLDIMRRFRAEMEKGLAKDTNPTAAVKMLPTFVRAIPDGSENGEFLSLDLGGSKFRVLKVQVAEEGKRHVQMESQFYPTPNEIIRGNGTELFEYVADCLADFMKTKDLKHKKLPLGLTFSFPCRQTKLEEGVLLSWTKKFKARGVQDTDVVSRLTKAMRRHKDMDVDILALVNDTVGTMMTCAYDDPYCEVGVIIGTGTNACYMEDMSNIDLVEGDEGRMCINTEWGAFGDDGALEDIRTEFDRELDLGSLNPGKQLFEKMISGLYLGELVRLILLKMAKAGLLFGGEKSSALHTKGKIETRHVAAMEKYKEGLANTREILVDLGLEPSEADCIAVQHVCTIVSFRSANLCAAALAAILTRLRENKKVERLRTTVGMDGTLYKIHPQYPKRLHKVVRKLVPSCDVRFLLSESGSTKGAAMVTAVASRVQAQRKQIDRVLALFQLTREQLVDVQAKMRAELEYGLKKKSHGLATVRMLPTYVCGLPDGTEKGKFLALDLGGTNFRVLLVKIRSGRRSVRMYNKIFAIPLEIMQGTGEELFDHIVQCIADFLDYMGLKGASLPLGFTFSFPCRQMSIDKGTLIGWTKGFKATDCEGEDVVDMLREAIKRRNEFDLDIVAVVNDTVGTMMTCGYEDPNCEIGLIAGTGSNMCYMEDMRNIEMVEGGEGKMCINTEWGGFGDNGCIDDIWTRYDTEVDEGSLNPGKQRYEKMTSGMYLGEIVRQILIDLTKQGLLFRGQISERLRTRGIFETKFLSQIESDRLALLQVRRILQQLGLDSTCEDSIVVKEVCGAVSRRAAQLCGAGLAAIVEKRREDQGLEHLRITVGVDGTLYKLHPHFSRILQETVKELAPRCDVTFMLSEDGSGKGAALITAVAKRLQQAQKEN

[2] = target: T2, Voltage-gated N-type calcium channel alpha-1B subunit/Amyloid beta A4 precursor protein-binding family A member 1 (Homo sapiens, UniProt Q00975+Q02410); test: disruptors of Mint-PDZ/N-type channel peptide interaction – biochemical, HTRF, set 2, SAR follow-up (AID 434980); type: functional
[3] = target: T2, Voltage-gated N-type calcium channel alpha-1B subunit/Amyloid beta A4 precursor protein-binding family A member 1; test: disruptors of Mint-PDZ/N-type channel peptide interaction – biochemical, HTRF, SAR follow-up (AID 2489); type: functional
[4] = target: Female germline-specific tumor suppressor gld-1 (Caenorhabditis elegans, UniProt Q17339); test: blockers of GLD-1/TGE RNA complex formation – biochemical, fluorescence polarization, C. elegans, dose response (AID 2802);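 further: fluorescence polarization of labeled TGE RNA bound by purified gld-1 protein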
Female germline-specific tumor suppressor gld-1, sequence (Q17339 whole entry, the tested form may be a part): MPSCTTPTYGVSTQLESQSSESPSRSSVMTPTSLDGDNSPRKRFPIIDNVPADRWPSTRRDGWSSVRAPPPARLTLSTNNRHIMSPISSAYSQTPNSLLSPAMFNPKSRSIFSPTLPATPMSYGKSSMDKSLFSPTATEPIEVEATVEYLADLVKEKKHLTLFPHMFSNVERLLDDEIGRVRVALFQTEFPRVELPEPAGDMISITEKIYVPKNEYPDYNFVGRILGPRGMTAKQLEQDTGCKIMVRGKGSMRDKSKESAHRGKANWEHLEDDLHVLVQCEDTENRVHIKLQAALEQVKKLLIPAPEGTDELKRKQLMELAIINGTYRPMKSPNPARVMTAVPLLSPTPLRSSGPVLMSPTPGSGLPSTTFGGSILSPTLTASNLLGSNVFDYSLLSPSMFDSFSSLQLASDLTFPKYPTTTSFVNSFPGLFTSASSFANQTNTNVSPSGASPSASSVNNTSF

[5] = target: T3, RNA-binding protein pos-1 (Caenorhabditis elegans, UniProt G5EF15); test: disruptors of C. elegans POS-1 RNA interaction – biochemical, fluorescence polarization, dose response (AID 1964);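 further: purified POS-1 fused to maltose binding protein made in E. coli; potency of compounds blocking POS-1 binding to fluorescent RNA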
T3 sequence (G5EF15 whole entry): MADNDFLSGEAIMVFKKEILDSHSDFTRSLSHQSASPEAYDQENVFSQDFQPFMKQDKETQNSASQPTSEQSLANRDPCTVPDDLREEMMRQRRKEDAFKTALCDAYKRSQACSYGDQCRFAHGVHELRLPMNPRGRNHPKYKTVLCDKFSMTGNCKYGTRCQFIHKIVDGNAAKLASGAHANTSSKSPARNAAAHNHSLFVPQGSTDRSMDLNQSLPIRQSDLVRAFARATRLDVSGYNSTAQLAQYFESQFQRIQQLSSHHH

[6] = target: T4, Zinc finger protein mex-5 (Caenorhabditis elegans, UniProt Q9XUB2); test: potency of MEX-5 RNA-binding blockers – biochemical, C. elegans, fluorescence polarization, dose response (AID 1960)
T4 sequence (Q9XUB2 whole entry): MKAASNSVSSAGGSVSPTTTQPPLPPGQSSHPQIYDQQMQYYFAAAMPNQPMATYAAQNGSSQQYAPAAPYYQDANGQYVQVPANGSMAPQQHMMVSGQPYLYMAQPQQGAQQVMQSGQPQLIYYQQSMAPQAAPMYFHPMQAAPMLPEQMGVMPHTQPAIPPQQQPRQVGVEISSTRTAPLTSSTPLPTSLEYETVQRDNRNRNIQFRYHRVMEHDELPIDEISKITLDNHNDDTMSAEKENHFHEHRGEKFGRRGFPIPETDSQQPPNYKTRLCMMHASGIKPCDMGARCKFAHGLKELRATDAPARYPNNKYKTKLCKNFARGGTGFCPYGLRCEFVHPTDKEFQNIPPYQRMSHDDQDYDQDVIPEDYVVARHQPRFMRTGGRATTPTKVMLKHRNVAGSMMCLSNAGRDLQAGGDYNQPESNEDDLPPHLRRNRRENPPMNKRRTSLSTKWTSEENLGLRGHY

[7] = target: T5, Polyadenylate-binding protein 1 (Homo sapiens, UniProt P11940); test: MLLE binding blockers, Cy5 peptide tracer – biochemical, fluorescence polarization, Cy5-PAM2 peptide, secondary, miRNA deadenylation inhibitor project, dose response (AID 602260); type: functional; conditions: read-out: IC50_Mean
T5 sequence (P11940 whole entry): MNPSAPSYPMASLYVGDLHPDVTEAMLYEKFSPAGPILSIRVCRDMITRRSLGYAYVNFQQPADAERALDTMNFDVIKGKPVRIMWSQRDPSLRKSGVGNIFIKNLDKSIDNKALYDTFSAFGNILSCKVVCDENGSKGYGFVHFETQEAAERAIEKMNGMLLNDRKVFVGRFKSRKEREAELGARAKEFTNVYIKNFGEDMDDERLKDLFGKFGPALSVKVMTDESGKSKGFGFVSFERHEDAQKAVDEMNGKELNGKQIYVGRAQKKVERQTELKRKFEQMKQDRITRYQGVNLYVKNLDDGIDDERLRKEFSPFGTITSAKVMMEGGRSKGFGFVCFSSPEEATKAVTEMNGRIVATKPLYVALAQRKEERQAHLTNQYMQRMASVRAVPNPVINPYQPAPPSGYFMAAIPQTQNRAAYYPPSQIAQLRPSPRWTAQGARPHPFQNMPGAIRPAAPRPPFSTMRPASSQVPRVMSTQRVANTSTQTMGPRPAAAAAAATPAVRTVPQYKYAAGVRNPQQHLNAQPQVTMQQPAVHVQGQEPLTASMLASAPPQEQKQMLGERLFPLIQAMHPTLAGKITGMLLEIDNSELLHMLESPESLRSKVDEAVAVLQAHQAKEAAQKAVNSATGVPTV

Protein Rev = Protein Rev (Human immunodeficiency virus type 1 group M subtype B (isolate HXB2)(HIV-1), UniProt P04618); test: blockers of HIV Rev/RRE RNA complex – biochemical, fluorescence polarization, HIV-1, dose response (AID 434976); set-up: species or system Human immunodeficiency virus 1
Protein Rev, sequence (P04618 whole entry): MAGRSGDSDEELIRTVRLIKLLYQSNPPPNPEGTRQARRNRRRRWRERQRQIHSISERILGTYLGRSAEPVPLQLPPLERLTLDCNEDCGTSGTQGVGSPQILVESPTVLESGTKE

Genome polyprotein = Genome polyprotein (dengue virus type 2, UniProt P29990); test: flavivirus cap methylation enzyme inhibition – biochemical, confirmation dose response, primary screen (AID 588689); type: functional
Genome polyprotein, sequence (P29990 2492-3391 limits assumed): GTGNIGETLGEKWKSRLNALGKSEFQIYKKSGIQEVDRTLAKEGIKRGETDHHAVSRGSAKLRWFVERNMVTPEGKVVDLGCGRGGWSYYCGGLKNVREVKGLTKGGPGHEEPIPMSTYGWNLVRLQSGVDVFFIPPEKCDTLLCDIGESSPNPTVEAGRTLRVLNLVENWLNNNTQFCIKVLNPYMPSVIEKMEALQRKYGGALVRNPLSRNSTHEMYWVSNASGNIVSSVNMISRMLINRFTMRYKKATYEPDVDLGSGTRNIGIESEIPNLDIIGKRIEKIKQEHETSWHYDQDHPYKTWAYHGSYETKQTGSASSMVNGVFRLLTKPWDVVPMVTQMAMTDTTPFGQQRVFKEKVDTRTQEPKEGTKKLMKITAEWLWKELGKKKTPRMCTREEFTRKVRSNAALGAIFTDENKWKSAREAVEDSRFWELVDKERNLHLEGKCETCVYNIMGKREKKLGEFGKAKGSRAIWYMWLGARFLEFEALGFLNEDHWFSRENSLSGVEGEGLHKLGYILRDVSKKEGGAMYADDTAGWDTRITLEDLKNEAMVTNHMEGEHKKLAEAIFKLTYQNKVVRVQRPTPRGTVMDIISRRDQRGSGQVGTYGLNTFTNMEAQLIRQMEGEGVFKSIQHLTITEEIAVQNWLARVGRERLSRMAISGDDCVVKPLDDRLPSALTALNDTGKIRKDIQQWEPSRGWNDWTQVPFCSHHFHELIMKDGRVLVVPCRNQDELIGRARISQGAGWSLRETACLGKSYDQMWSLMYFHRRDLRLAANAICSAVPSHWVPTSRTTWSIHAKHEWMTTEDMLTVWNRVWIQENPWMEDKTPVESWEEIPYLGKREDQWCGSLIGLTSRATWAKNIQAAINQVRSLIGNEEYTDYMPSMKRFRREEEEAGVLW

[8] = target: T5, Polyadenylate-binding protein 1; test: MLLE domain peptide-binding blockers, IC50 – biochemical, fluorescence polarization, FITC-PAM2 peptide, dose response (AID 602259); type: functional; conditions: read-out: IC50_Mean
Beta Lactamase = Beta Lactamase (Pseudomonas aeruginosa, UniProt Q932Y6); test: BLA reporter interference, concentration series – BLA reporter cells, FRET fluorescence, artefact control for TLR9-MyD88 binding inhibitor project, dose response (AID 588341); type: cell-based;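 further: cell based assay in CHO-K1 cells stably expressing beta-lactamase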
Beta Lactamase, sequence (Q932Y6 whole entry): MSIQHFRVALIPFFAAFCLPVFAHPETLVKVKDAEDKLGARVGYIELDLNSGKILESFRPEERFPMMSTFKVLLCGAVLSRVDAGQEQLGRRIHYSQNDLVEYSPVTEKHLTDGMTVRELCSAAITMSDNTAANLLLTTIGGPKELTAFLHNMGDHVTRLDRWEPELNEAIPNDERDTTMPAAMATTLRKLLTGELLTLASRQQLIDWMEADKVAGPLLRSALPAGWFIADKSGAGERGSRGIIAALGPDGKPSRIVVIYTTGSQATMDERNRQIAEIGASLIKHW

[9] = target: T6, Rac GTPase-activating protein 1 (Homo sapiens, UniProt Q9H0H5); test: blockers of MgcRacGAP-driven Rac1 GTP hydrolysis – biochemical, ADP Hunter fluorescence, primary and confirmatory, confirmation (AID 624330); type: functional
T6 sequence (Q9H0H5 whole entry): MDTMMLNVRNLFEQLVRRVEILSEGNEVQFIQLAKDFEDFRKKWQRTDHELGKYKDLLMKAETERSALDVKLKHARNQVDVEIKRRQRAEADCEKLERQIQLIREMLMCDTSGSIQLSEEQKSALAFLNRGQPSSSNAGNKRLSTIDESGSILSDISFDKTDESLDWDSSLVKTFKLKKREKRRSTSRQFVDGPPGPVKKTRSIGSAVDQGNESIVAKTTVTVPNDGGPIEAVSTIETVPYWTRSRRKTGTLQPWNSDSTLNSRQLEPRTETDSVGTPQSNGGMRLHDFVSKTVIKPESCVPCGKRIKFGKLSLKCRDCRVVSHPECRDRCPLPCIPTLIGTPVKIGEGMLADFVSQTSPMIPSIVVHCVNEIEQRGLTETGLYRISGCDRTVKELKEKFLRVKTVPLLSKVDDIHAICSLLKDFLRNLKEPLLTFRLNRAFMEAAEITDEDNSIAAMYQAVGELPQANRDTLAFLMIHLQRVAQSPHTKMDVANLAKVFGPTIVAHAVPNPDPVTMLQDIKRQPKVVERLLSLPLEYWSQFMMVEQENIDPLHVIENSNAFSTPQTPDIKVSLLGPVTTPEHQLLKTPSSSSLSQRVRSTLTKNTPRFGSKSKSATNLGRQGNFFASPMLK

[10] = target: Glucose-6-phosphate 1-dehydrogenase (Homo sapiens, UniProt P11413); test: inhibition of Homo sapiens G6PD, dose series – biochemical, fluorescence, selectivity assay for P. falciparum G6PD inhibitor project, dose response (AID 504792); type: functional
[11] = target: T7, Histone-lysine N-methyltransferase NSD2 (Homo sapiens, UniProt O96028); type: biochemical
T7 sequence (O96028 whole entry): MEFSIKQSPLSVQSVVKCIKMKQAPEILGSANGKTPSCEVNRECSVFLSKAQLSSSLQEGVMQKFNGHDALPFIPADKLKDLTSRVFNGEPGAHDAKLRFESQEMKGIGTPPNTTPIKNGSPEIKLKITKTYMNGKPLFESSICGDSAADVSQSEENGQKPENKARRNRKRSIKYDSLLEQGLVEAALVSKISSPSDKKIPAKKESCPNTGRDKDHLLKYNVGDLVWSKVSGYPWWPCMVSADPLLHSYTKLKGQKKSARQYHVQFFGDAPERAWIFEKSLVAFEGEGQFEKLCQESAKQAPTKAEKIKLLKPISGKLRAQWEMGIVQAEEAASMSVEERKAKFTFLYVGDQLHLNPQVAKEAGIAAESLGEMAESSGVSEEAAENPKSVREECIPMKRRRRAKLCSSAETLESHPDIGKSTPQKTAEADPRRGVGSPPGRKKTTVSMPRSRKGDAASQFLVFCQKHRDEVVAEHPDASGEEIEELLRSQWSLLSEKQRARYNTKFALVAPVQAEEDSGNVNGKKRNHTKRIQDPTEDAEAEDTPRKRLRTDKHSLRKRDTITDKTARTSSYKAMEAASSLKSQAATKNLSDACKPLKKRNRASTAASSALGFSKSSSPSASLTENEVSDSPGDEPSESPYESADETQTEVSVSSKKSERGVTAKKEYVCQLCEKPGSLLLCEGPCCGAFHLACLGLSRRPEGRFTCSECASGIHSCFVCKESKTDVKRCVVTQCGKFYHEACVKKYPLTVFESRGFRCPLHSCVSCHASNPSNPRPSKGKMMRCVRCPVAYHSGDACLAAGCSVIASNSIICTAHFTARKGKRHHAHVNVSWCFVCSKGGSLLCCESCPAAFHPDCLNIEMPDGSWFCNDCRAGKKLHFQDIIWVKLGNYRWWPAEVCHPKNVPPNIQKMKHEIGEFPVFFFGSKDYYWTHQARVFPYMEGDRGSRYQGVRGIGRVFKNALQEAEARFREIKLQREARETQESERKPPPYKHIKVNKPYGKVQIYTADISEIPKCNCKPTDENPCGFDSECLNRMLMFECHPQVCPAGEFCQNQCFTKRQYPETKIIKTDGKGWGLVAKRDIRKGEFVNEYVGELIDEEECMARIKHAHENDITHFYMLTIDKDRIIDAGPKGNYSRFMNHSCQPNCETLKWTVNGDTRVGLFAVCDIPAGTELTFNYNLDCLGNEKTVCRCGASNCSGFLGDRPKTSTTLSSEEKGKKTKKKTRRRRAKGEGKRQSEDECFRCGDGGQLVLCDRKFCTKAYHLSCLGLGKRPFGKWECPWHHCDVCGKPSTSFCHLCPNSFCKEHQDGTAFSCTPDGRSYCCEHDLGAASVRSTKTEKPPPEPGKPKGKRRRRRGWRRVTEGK

CHO = CHO cell viability loss, potency – luminescence, cytotoxicity control for TLR9-MyD88 binding inhibitor project, dose response (AID 588339); type: functional, cell-based, hamster; conditions: Cricetulus griseus;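 further: CHO cells stably coexpressing TLR9 and MyD88 fusions from primary screen; compound exposure lasted 48 hours before viability readout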
Beta-galactosidase = Beta-galactosidase (Escherichia coli, UniProt Q8VNN2); test: detection-enzyme interference by beta-gal modulators – biochemical, E. coli enzyme, set 3, artefact control for CCR6 antagonist project, dose response (AID 504712); type: functional
[12] = target: Heat shock protein HSP 90-alpha (Homo sapiens, UniProt P07900); type: functional, organism-based
[13] = target: Induced myeloid leukemia cell differentiation protein Mcl-1 (Homo sapiens, UniProt Q07820); type: functional
Albumin = Albumin (Bos taurus, UniProt P02769); test: Counterscreen for inhibitors of T-cell receptor (TCR)-CD3 interaction: Fluorescence-based biochemical high throughput dose response assay to identify inhibitors of T-cell receptor (TCR)-CD3 interaction using a TAMRA-labeled BSA probe.; type: functional
NS3 = NS3 (Hepatitis C virus, UniProt A3EZJ3); test: PubChem AID 2173; set-up: species or system Hepacivirus hominis
[14] = target: DNA (cytosine-5)-methyltransferase 1 (Homo sapiens, UniProt P26358); test: inhibition of DNA methylation by DNMT1 – biochemical, fluorescent molecular beacon, confirmation (AID 602386); type: functional
DNA (cytosine-5)-methyltransferase 1, sequence (P26358 whole entry): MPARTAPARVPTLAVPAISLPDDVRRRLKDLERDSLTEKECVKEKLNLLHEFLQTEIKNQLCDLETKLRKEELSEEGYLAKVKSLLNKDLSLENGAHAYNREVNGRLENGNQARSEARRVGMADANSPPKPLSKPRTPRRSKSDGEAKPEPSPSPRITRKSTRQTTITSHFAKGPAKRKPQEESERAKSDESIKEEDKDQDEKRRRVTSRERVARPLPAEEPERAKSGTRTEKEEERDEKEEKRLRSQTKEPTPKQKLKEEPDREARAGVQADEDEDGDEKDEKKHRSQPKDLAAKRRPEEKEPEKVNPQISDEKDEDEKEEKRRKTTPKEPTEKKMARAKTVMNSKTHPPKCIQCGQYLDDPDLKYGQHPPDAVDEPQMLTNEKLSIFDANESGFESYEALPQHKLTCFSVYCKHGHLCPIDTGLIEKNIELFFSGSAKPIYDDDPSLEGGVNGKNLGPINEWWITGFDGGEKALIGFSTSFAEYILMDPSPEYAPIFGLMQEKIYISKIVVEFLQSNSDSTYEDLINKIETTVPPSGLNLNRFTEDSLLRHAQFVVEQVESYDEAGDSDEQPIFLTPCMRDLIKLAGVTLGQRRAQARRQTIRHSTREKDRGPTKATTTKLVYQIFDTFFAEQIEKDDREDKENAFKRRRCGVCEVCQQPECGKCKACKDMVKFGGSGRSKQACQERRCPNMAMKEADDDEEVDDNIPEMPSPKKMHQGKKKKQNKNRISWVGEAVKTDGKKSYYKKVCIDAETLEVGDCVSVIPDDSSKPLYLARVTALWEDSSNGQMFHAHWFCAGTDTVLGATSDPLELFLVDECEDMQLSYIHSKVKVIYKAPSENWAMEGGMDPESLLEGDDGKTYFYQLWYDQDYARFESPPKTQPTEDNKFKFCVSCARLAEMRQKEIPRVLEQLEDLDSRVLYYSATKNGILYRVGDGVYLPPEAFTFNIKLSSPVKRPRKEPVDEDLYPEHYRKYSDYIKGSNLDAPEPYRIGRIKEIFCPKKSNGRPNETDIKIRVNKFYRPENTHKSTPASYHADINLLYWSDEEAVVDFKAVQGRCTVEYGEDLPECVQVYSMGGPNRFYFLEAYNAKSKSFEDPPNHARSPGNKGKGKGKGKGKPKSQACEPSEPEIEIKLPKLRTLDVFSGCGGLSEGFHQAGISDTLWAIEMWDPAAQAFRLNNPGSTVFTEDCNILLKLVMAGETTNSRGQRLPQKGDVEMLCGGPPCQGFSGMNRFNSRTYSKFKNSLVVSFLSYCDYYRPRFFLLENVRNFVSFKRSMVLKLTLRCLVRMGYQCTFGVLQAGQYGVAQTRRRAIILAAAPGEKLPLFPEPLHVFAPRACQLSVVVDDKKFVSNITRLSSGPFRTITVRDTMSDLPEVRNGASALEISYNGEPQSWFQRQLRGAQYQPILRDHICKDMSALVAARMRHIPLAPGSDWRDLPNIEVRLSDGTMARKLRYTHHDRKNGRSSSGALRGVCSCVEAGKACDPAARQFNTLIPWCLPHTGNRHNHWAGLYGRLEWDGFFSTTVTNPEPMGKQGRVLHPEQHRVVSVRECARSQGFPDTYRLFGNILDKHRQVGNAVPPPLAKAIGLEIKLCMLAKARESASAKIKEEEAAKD

[15] = target: T8, Small ubiquitin-related modifier 1 (Homo sapiens, UniProt P63165); test: SUMO1 protein interaction blockers, potency – biochemical, fluorescence polarization, uHTS hits, dose response (AID 624382); type: functional; conditions: read-out: IC50_Mean
T8 sequence (P63165 whole entry): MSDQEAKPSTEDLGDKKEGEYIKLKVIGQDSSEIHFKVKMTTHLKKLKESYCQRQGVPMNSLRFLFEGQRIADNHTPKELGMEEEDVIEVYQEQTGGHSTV

[16] = target: T8, Small ubiquitin-related modifier 1; test: SUMO1 protein-protein binding blockers, potency – biochemical, FRET, dose response (AID 624383); type: functional; conditions: read-out: IC50_Mean

Potassium voltage-gated channel subfamily KQT member 2, sequence (O88943 whole entry): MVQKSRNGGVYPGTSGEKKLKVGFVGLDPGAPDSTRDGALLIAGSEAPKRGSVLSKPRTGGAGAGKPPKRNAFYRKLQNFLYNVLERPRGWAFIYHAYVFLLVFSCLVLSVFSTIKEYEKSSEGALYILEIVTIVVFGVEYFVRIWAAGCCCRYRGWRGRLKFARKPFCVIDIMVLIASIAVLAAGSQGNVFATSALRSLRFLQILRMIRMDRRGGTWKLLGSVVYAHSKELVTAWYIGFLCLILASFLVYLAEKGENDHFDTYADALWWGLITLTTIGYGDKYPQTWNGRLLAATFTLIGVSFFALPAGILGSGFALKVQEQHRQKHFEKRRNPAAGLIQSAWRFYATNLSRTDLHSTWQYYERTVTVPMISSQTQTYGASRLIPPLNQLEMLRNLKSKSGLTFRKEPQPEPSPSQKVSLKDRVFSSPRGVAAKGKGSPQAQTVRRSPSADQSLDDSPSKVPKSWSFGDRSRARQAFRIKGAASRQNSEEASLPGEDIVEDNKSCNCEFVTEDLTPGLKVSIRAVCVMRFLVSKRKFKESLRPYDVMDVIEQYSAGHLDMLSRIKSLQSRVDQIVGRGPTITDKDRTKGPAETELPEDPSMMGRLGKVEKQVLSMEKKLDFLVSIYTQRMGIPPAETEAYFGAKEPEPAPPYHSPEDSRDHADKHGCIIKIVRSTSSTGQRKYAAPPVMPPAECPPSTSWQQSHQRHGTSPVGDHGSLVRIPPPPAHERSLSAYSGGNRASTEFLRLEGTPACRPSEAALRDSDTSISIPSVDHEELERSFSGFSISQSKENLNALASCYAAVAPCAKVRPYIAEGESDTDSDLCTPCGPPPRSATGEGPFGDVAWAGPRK

SMILES: O=C(Nc1cccnc1)Nc1cccc(Cl)c1
EC50 [1]: 18.3 µM (active)

IC50 (Hexokinase HKDC1): 9.27 µM (active)
SMILES: O=C(CSc1nnc(CCCN2C(=O)c3cccc4cccc(c34)C2=O)n1-c1ccccc1)N1CCN(CCO)CC1

IC50 [2]: > 56.8 µM (inactive)
IC50 [3]: > 56.8 µM (inactive)
SMILES: COC(=O)c1cc(N2C(=O)C3C(C2=O)C2(C)C=CC3(C)O2)ccc1Cl (centres undefined)

SMILES: O=C1c2ccccc2C(=O)c2c1cccc2N(CCO)CCO
IC50 [4]: 5.51 µM (active)
EC50 [5]: 19.6 µM (active)
EC50 [6]: 17 µM (active)
IC50 [7]: > 66 µM (inactive)
IC50 (Protein Rev): 8.44 µM (active)
IC50 (Genome polyprotein): 28.8 µM (active)
IC50 [8]: 47.7 µM (inactive)

EC50 [1]: 3.74 µM (active)
SMILES: O=C(NCc1ccc(Cl)cc1Cl)Nc1ccc(Cl)nc1

SMILES: O=C1C(Cl)=C(NCCc2ccccc2)C(=O)c2ccccc21
IC50 (Hexokinase HKDC1): 7.92 µM (active)
IC50 (Beta Lactamase): 17.7 µM (inactive)
IC50 [9]: 218 µM (active)
IC50 [10]: 19.7 µM (active)
AC50 [11]: 3.78 µM (active)
IC50 (CHO): 1.58 µM (active)
IC50 [7]: > 66 µM (inactive)
IC50 (Beta-galactosidase): > 66.6 µM (inactive)
AC50 [12]: 3.38 µM (active)
IC50 (Genome polyprotein): 9.15 µM (active)
IC50 [8]: > 66 µM (inactive)

SMILES: O=C(O)c1ccccc1/C=N/NC(=O)c1cc(-c2ccco2)nc2ccccc12
IC50 [13]: 2.54 µM (active)
IC50 (Albumin): > 94.1 µM (inactive)
IC50 (NS3): 7.35 µM (active)
IC50 [14]: 5.4 µM (active)
IC50 [15]: > 66.6 µM (inactive)
IC50 [16]: 9.51 µM (active)
